The values below come from ChEMBL document CHEMBL4177592, “Discovery of renin inhibitors containing a simple aspartate binding moiety that imparts reduced P450 inhibition” (Bioorg Med Chem Lett, 2017).

SMILES strings stand for the structures.

For assay [1], the target named is T1, Renin (Homo sapiens, UniProt P00797).
T1 sequence (P00797 whole entry): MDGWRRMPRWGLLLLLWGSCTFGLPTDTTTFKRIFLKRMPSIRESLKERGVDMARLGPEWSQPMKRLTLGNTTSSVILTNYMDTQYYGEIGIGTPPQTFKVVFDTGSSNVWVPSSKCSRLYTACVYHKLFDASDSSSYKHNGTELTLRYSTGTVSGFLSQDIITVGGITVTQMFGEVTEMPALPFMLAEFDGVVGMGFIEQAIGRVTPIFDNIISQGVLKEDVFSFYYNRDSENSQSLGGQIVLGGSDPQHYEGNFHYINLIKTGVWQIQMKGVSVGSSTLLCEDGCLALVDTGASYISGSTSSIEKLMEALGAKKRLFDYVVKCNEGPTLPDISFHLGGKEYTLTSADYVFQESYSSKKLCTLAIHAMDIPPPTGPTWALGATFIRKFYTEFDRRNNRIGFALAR
As to the kind of experiment: Inhibition of renin in human plasma using angiotensinogen as substrate measured for 90 mins by [125I]-angiotensin based radioimmunoassay.

Assay [2] has as its target T1, Renin. The assay can be described thus: Inhibition of trypsin-activated recombinant human Fc-tagged renin expressed in BacMam virus infected HEK-F cells using Arg-Glu-Lys(5-Fam)-Ile-His-Pro-Phe-His-Leu-Val-IleHis-Thr-Lys(5,6 Tamra)-Arg-CONH2 as substrate measured after 2 hrs.
In the next assay the target is Cytochrome P450 3A4 (Homo sapiens, UniProt P08684). As to the kind of experiment: Inhibition of human CYP3A4 expressed in Escherichia coli co-expressing CYP-reductase using diethoxyfluorescein as substrate measured after 10 mins by fluorescence assay.

What is called IC50 is the point on the concentration scale where inhibition reaches its midpoint.

Cytochrome P450 3A4, sequence (P08684 whole entry): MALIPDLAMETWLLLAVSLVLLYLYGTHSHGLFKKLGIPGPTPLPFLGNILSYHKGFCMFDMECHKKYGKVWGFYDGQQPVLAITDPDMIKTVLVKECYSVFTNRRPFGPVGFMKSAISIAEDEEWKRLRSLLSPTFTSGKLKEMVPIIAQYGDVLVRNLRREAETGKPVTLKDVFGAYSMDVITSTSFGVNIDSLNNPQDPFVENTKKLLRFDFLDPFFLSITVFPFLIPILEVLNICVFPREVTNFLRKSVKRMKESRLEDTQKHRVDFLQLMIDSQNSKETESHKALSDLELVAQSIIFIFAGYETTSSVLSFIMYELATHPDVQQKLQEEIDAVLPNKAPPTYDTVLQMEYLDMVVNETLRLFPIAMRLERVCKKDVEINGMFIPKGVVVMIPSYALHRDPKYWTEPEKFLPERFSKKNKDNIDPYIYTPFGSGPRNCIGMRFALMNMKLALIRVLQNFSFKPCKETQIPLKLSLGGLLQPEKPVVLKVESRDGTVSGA

For `CCc1cccc(-c2c(F)cccc2C(O)(CCCNC(=O)OC)[C@@H]2CCCN(C(=O)CCCN)C2)c1` (some centres undefined), the IC50 at Renin [1] is 0.013 µM; at Renin [2], 0.001 µM; against Cytochrome P450 3A4 it was 0.24 µM. In the case of `CCc1cccc(-c2c(F)cccc2C(O)(CCCNC(=O)OC)[C@@H]2CCCN(C(=O)CCCNCCO)C2)c1` (some centres undefined), the IC50 against Renin [1] was 0.063 µM; at Renin [2], 0.0025 µM.

Consider `CCc1cccc(-c2c(F)cccc2C(O)(CCCNC(=O)OC)[C@@H]2CCCN(C(=O)[C@@H]3CC[C@H](N)C3)C2)c1` (some centres undefined), for which the IC50 was 0.0033 µM on Renin [1], 0.0006 µM at Renin [2] and 0.09 µM on Cytochrome P450 3A4. On to `CCc1cccc(-c2c(F)cccc2C(O)(CCCNC(=O)OC)[C@@H]2CCCN(C(=O)[C@@H](O)CCN)C2)c1` (some centres undefined), for which the IC50 against Renin [1] stood at 0.84 µM; on Renin [2], 0.04 µM. For `CCc1cccc(-c2c(F)cccc2C(O)(CCCNC(=O)OC)[C@@H]2CCCN(C(=O)CC[C@H](N)CO)C2)c1` (some centres undefined) the same measures were 0.46 µM and 0.02 µM.

On to `CCc1cccc(-c2c(F)cccc2C(O)(CCCNC(=O)OC)[C@@H]2CCCN(C(=O)CC3CCCN3)C2)c1` (some centres undefined), for which the IC50 on Renin [2] was 0.8 µM. Consider `CCc1cccc(-c2c(Cl)cccc2C(O)(CCCNC(=O)OC)[C@@H]2CCCN(C(=O)[C@@H]3CC[C@H](NC)C3)C2)c1` (some centres undefined), for which the half-inhibitory concentration (IC50) against Renin [1] was determined as 0.0043 µM; at Renin [2], 0.0006 µM; on Cytochrome P450 3A4, 0.049 µM.

With `CCc1cccc(-c2c(F)cccc2C(O)(CCCNC(=O)OC)[C@@H]2CCCN(C(=O)CC[C@H](N)C(=O)O)C2)c1` (some centres undefined), at Renin [2], the IC50 amounted to 0.32 µM. As for `CCc1cccc(-c2c(F)cccc2C(O)(CCCNC(=O)OC)[C@@H]2CCCN(C(=O)CC[C@H](N)C(=O)OC)C2)c1` (some centres undefined), the IC50 on Renin [1] amounted to 0.54 µM; on Renin [2], 0.025 µM. Turning to `CCc1cccc(-c2c(F)cccc2C(O)(CCCNC(=O)OC)[C@@H]2CCCN(C(=O)C3CCCNC3)C2)c1` (some centres undefined), at Renin [2], the IC50 was 0.32 µM. In the case of `CCc1cccc(-c2c(F)cccc2C(O)(CCCNC(=O)OC)[C@@H]2CCCN(C(=O)CN)C2)c1` (some centres undefined), the IC50 at Renin [1] was determined as 3.8 µM; at Renin [2], 0.063 µM. For `CCc1cccc(-c2c(F)cccc2C(O)(CCCNC(=O)OC)[C@@H]2CCCN(C(=O)C3CCNC3)C2)c1` (some centres undefined) the same measures were 0.54 µM and 0.025 µM. As for `CCc1cccc(-c2c(F)cccc2C(O)(CCCNC(=O)OC)[C@@H]2CCCN(C(=O)NCCN)C2)c1` (some centres undefined), the IC50 against Renin [1] came to 0.15 µM; at Renin [2], 0.0032 µM. `CCc1cccc(-c2c(Cl)cccc2C(O)(CCCNC(=O)OC)[C@@H]2CCCN(C(=O)[C@H]3C[C@@H](N)[C@@H](O)C3)C2)c1` (some centres undefined): the half-inhibitory concentration (IC50) against Renin [1] came out at 0.0018 µM; on Renin [2] it was 0.0003 µM; on Cytochrome P450 3A4, 0.25 µM.

Consider `CCc1cccc(-c2c(F)cccc2C(O)(CCCNC(=O)OC)[C@@H]2CCCN(C(=O)CC(CNC)OC)C2)c1` (some centres undefined), for which the IC50 at Renin [1] stood at 0.05 µM; on Renin [2], 0.005 µM.

As to `CCc1cccc(-c2c(Cl)cccc2C(O)(CCCNC(=O)OC)[C@@H]2CCCN(C(=O)CCCNC)C2)c1` (some centres undefined), the half-inhibitory concentration (IC50) against Renin [1] is 0.016 µM; at Renin [2], 0.001 µM; against Cytochrome P450 3A4, 0.14 µM. As for `CCc1cccc(-c2c(F)cccc2C(O)(CCCNC(=O)OC)[C@@H]2CCCN(C(=O)CC3CCNCC3)C2)c1` (some centres undefined), the IC50 was 0.023 µM against Renin [1] and 0.0016 µM at Renin [2]. For `CCc1cccc(-c2c(F)cccc2C(O)(CCCNC(=O)OC)[C@@H]2CCCN(C(=O)CC3CCCNC3)C2)c1` (some centres undefined) the same measures were 0.04 µM and 0.002 µM. `CCc1cccc(-c2c(F)cccc2C(O)(CCCNC(=O)OC)[C@@H]2CCCN(C(=O)CCN)C2)c1` (some centres undefined): on Renin [2], the 50% inhibitory concentration (IC50) was 0.1 µM. Consider `CCc1cccc(-c2c(F)cccc2C(O)(CCCNC(=O)OC)[C@@H]2CCCN(C(=O)CC(O)CNC)C2)c1` (some centres undefined), for which the figures for the IC50 against Renin [1], on Renin [2] and at Cytochrome P450 3A4 were 0.029 µM, 0.002 µM and 0.84 µM, respectively.

For `CCc1cccc(-c2c(F)cccc2C(O)(CCCNC(=O)OC)[C@@H]2CCCN(C(=O)C[C@H](O)CN)C2)c1` (some centres undefined), the IC50 at Renin [2] turned out to be 0.0013 µM.

For `CCc1cccc(-c2c(F)cccc2C(O)(CCCNC(=O)OC)[C@@H]2CCCN(C(=O)C3CCNCC3)C2)c1` (some centres undefined), the IC50 against Renin [1] is 0.102 µM; at Renin [2], 0.0063 µM. For the molecule `CCc1cccc(-c2c(F)cccc2C(O)(CCCNC(=O)OC)[C@@H]2CCCN(C(=O)C3CNCCO3)C2)c1` (some centres undefined), the IC50 on Renin [2] was found to be 1 µM. Still for that read-out and setting: the result for `CCc1cccc(-c2c(F)cccc2C(O)(CCCNC(=O)OC)[C@@H]2CCCN(C(=O)CCCN(C)C)C2)c1` (some centres undefined) reads 0.63 µM; that for `CCc1cccc(-c2c(F)cccc2C(O)(CCCNC(=O)OC)[C@@H]2CCCN(C(=O)C3CCCCN3)C2)c1` (some centres undefined), 2 µM. `CCc1cccc(-c2c(F)cccc2C(O)(CCCNC(=O)OC)[C@@H]2CCCN(C(=O)CC[C@H](N)C(=O)OCc3ccccc3)C2)c1` (some centres undefined): the IC50 against Renin [1] was 0.45 µM; on Renin [2], 0.016 µM. Regarding `CCc1cccc(-c2c(Cl)cccc2C(O)(CCCNC(=O)OC)[C@@H]2CCCN(C(=O)[C@@H]3CC[C@H](N)C3)C2)c1` (some centres undefined), the figures for the IC50 against Renin [1], on Renin [2] and against Cytochrome P450 3A4 were 0.0084 µM, 0.0031 µM and 0.034 µM, respectively. For `CCc1cccc(-c2c(F)cccc2C(O)(CCCNC(=O)OC)[C@@H]2CCCN(C(=O)CCC3CCCCN3)C2)c1` (some centres undefined), the IC50 at Renin [2] came to 0.126 µM.

On to `CCc1cccc(-c2c(F)cccc2C(O)(CCCNC(=O)OC)[C@@H]2CCCN(C(=O)CCCCCN)C2)c1` (some centres undefined), for which the IC50 on Renin [1] is 0.1 µM; at Renin [2], 0.0032 µM. In the same order, the values of `CCc1cccc(-c2c(F)cccc2C(O)(CCCNC(=O)OC)[C@@H]2CCCN(C(=O)CC[C@@H](N)CO)C2)c1` (some centres undefined) are 0.18 µM and 0.0063 µM. With `CCc1cccc(-c2c(F)cccc2C(O)(CCCNC(=O)OC)[C@@H]2CCCN(C(=O)CC(O)CN)C2)c1` (some centres undefined), the IC50 at Renin [1] stood at 0.036 µM; at Renin [2], 0.002 µM; at Cytochrome P450 3A4 it was 0.44 µM. For the molecule `CCc1cccc(-c2c(F)cccc2C(O)(CCCNC(=O)OC)[C@@H]2CCCN(C(=O)CCCCN)C2)c1` (some centres undefined), the values for the IC50 against Renin [1] and at Renin [2] were 0.12 µM and 0.002 µM, respectively. For the molecule `CCc1cccc(-c2c(F)cccc2C(O)(CCCNC(=O)OC)[C@@H]2CCCN(C(=O)CCC3CCNCC3)C2)c1` (some centres undefined), on Renin [2], the IC50 came out at 0.08 µM. In the case of `CCc1cccc(-c2c(F)cccc2C(O)(CCCNC(=O)OC)[C@@H]2CCCN(C(=O)NCCNC)C2)c1` (some centres undefined), the IC50 at Renin [1] was found to be 0.12 µM; at Renin [2], 0.0063 µM. In the same order, the values of `CCc1cccc(-c2c(F)cccc2C(O)(CCCNC(=O)OC)[C@@H]2CCCN(C(=O)CC3CNCCO3)C2)c1` (some centres undefined) are 0.024 µM and 0.0016 µM. On to `CCc1cccc(-c2c(F)cccc2C(O)(CCCNC(=O)OC)[C@@H]2CCCN(C(=O)CC[C@H](N)C(N)=O)C2)c1` (some centres undefined), for which the IC50 on Renin [2] was determined as 0.63 µM.
